Measurements taken from BindingDB's records for doi:10.1021/jm201482p (University of Nebraska Medical Center, 2012).

Target: Cholinesterase (Homo sapiens, UniProt P06276)
Experiment: Inhibition of human BChE after 30 mins by microplate reader method

Sequence of Cholinesterase (P06276 whole entry): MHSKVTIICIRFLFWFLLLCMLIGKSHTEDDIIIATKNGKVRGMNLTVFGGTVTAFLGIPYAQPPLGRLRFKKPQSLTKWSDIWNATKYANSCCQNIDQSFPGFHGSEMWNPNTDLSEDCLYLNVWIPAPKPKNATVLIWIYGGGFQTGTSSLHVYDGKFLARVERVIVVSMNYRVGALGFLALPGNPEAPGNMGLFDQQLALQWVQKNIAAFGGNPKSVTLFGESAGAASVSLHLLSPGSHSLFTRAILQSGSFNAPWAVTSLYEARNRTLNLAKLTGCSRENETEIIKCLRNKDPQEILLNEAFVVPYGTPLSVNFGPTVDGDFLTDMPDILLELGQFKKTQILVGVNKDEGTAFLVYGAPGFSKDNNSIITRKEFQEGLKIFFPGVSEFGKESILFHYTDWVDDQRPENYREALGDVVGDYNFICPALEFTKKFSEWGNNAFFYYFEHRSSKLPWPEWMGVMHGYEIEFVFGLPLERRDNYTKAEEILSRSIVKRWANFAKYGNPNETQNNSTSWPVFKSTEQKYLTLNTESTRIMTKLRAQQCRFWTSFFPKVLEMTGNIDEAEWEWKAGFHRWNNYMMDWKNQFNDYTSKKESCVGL

CC(C)(C)c1cc(C(C)(C)C)c2c(c1F)COP(=O)(OC[C@H]1O[C@@H](n3cc(I)c(=O)[nH]c3=O)C[C@@H]1O)O2 (stereo partly specified)
IC50: > 60 mM
